Laboratory results: patent publication US10154988B2, “Methods and compositions for treating schizophrenia” (The Johns Hopkins University, priority 2012, dated 2018)
“Also recorded” adds a separate entry of the source. Read-outs that look alike come from different tables or passages of the source.

How the values were obtained:
[1] = test system: DG/CA3 region of aMCI subjects; experiment: fMRI activity in DG/CA3 during lure stimuli correctly identified as similar; assay type: in vivo, human
Procedure: A within-subjects trial of 8 weeks duration, involving 17 amnestic MCI (aMCI) subjects and 17 age-matched controls with a low dose treatment of levetiracetam is conducted. […] Cognitive testing and fMRI imaging data are obtained from the subjects after each two week period of drug/placebo treatment. […] The […]

[2] = levetiracetam blood plasma levels in aMCI patients; assay type: in vivo; conditions: human
Description: Visit 1: At the end of the first drug/placebo period 2 weeks after the Baseline Visit, the medical, neurological and psychiatric evaluations and cognitive testing are repeated. The subject is also clinically evaluated for suicidal ideation. Blood is drawn again to repeat the standard tests and to determine whether there are any changes related to drug treatment; the subject's blood levetiracetam level is also obtained. All medication that is dispensed at the Baseline Visit (drug or placebo) is collected and subject compliance with the medication regimen is assessed. The first fMRI session (with cognitive tests) is conducted on the same day, either immediately before or immediately after the clinical assessment. Subjects discontinue first period treatment at this visit.
Visit 2: At approximately 2 weeks after the Washout Visit (i.e., 2 weeks after starting the second treatment period), the medical, neurological and psychiatric evaluations and the cognitive testing are repeated. The subject is clinically evaluated for suicidal ideation. Blood is drawn again to repeat the standard tests and to determine whether there are any changes related to drug treatment; the subject's blood levetiracetam level is also obtained. All medication that is dispensed at the Washout Visit is collected and subject compliance with the medication regimen is assessed. The second fMRI session (with cognitive tests) is repeated on the same day, either immediately before or immediately after the clinical assessment.
Visit 2: At approximately 2 weeks after the Washout Visit (i.e., 2 weeks after starting the second treatment period), the medical, neurological and psychiatric evaluations and the cognitive testing are repeated. The subject is clinically evaluated for suicidal ideation. […] All medication being dispensed at the Washout Visit is collected and subject compliance with the medication regimen is assessed. […]
Human – in the human studies described in Examples 3 and 4, a subject's levetiracetam blood plasma level is assessed at each visit. […]

[3] = levetiracetam blood plasma levels in aged-impaired rats; assay type: in vivo; conditions: rat
Procedure: Rats: Blood is drawn from aged-impaired rats by cardiac puncture during perfusion after a 28-day levetiracetam treatment period and is sent for analysis of levetiracetam plasma levels by MedTox Laboratories in St. Paul, Minn.
The levetiracetam blood levels in the aged-impaired rats treated with daily levetiracetam doses of 10 mg/kg and 60 mg/kg can be use to estimate the levetiracetam blood level of its daily dose of 20 mg/kg. This extrapolation gives an estimated levetiracetam blood level of 7.6 mcg/ml for the 20 mg/kg daily dose.

[4] = test system: entorhinal cortex (EC) of aMCI subjects; experiment: fMRI activity in entorhinal cortex during lure stimuli correctly identified as similar; assay type: in vivo, human; conditions: 125 mg twice a day for two weeks vs placebo
Procedure: A within-subjects trial of 8 weeks duration, involving 17 amnestic MCI (aMCI) subjects and 17 age-matched controls with a low dose treatment of levetiracetam is conducted. During the course of the study, each aMCI subject receives both drug and placebo treatments separately in two periods of two weeks each, with the order of treatments among different aMCI subjects being counterbalanced (see FIG. 7). Age-matched control subjects that are treated with placebo serve as a further control. Cognitive testing and fMRI imaging data are obtained from the subjects after each two week period of drug/placebo treatment. As described above, the drug treatment period is the two weeks preceding Visit 1 or 2 (with the two week period preceding the other Visit being the placebo phase). […] Imaging data are obtained through high-resolution methods developed in the Stark laboratory. Data are collected on a Phillips 3 Tesla scanner (Eindhoven, The Netherlands) equipped with an 8-channel SENSE (Sensitivity Encoding) head coil, located at the F.M. Kirby Research Center for Functional Brain Imaging at the Kennedy Krieger Institute (Baltimore, Md.). […] Group data are analyzed using a two-way Analysis of Variance (ANOVA) with trial types and group as fixed factors, and subject as a random factor nested within group. […]

CC[C@@H](C(N)=O)N1CCCC1=O [levetiracetam, (2S)-2-(2-oxopyrrolidin-1-yl) butanamide]
DG/CA3 hyperactivity (fMRI mean activity) ([1]; 125 mg twice a day for two weeks vs placebo, p=0.037): reduces DG/CA3 hyper-activity
DG/CA3 hyperactivity (fMRI mean activity) ([1]; 250 mg BID for two weeks vs placebo, N=17): does not significantly reduce; also recorded: No such improvement is observed
concentration at 2 weeks ([2]; 62.5 mg BID cohort (125 mg/day), SEM±0.288, read-out: mean levetiracetam blood plasma level): 2880 ng/mL
concentration at 2 weeks ([2]; 125 mg BID cohort (250 mg/day), SEM±0.53, read-out: mean levetiracetam blood plasma level): 4400 ng/mL
concentration at 2 weeks ([2]; 250 mg BID cohort (500 mg/day), SEM±0.92, read-out: mean levetiracetam blood plasma level): 7900 ng/mL
concentration at 28 days ([3]; 20 mg/kg daily dose, extrapolated from 10 and 60 mg/kg, read-out: estimated levetiracetam blood level): 7600 ng/mL
concentration at 28 days ([3]; other: osmotic minipumps, 10 mg/kg/day, 28 days, SEM±0.255, read-out: mean levetiracetam blood plasma level): 3800 ng/mL
concentration at 28 days ([3]; other: osmotic minipumps, 20 mg/kg daily dose, extrapolated from 10 and 60 mg/kg, read-out: estimated levetiracetam blood level): 7600 ng/mL
EC activity during memory judgments (fMRI) [4]: normalizes activity
